Molecular target: T1, SHP2 protein (Homo sapiens, UniProt Q06124)
T1 sequence (Q06124 1-593): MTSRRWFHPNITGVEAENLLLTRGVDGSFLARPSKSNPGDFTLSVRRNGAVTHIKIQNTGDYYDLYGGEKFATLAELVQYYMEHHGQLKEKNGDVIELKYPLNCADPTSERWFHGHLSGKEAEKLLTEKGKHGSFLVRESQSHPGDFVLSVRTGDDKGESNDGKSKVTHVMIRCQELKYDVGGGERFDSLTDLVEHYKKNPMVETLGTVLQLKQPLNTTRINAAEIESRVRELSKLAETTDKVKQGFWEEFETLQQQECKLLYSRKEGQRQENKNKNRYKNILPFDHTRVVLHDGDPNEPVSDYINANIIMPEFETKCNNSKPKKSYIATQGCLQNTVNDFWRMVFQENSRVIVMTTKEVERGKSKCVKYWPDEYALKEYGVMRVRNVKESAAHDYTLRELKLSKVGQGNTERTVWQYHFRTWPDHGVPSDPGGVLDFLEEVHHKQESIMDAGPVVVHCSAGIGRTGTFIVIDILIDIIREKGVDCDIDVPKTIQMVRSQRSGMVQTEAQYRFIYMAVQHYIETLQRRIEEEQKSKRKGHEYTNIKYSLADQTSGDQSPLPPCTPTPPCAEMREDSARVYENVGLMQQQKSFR
Assay: Measurement of SHP2 protein degradation in MV-4-11 cells (western blotting)
Format: cell-based
Parameters: endogenous in cells; host or cells: MV-4-11
Details: MV-4-11 cells, 24 hours
How it was run: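 SHP2 protein levels were assessed by western blotting in MV-4-11 cells after a 24 hour compound treatment. Lysates were sonicated, centrifuged, normalized by BCA assay at 562 nm, run on Bis-tris 4-12% gels, transferred to NC membrane, probed with anti-SHPTP2 (70 kDa) and anti-GAPDH (37 kDa) antibodies, and detected on LI-COR Odyssey.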

Row | Compound | SHP2 degradation (%) 10 nM | SHP2 degradation (%) 100 nM | SHP2 degradation (%) 1000 nM
1 | Cc1ncsc1-c1ccc(CNC(=O)[C@@H]2C[C@@H](O)CN2C(=O)[C@@H](NC(=O)C2(F)CC2)C(C)(C)C)c(OCCNC(=O)c2cnc(N3CCC(CCCC(=O)Nc4cccc(Sc5cnc(N6CCC(C)(CN)CC6)cn5)c4Cl)CC3)nc2)c1 [Example 89, 2-(4-(4-((3-((5-(4-(aminomethyl)-4-methylpiperidin-1-yl)pyrazin-2-yl)thio)-2-chlorophenyl)amino)-4-oxobutyl)piperidin-1-yl)-N-(2-(2-(((2S,4R)-1-((S)-2-(1-fluorocyclopropane-1-carboxamido)-3,3-dimethylbutanoyl)-4-hydroxypyrrolidine-2-carboxamido)methyl)-5-(4-methylthiazol-5-yl)phenoxy)ethyl)pyrimidine-5-carboxamide] | 4% | 95% | 97%
2 | Cc1ncsc1-c1ccc(CNC(=O)[C@@H]2C[C@@H](O)CN2C(=O)[C@@H](NC(=O)C2(F)CC2)C(C)(C)C)c(OCCCC2CCN(C(=O)CC(=O)Nc3cccc(Sc4cnc(N5CCC(C)(CN)CC5)cn4)c3Cl)CC2)c1 [Example 41, (2S,4R)—N-(2-(3-(1-(3-((3-((5-(4-(aminomethyl)-4-methylpiperidin-1-yl)pyrazin-2-yl)thio)-2-chlorophenyl)amino)-3-oxopropanoyl)piperidin-4-yl)propoxy)-4-(4-methylthiazol-5-yl)benzyl)-1-((S)-2-(1-fluorocyclopropane-1-carboxamido)-3,3-dimethylbutanoyl)-4-hydroxypyrrolidine-2-carboxamide] | 77.0% | 92.5% | 91.5%
3 | Cc1ncsc1-c1ccc(CNC(=O)[C@@H]2C[C@@H](O)CN2C(=O)[C@@H](NC(=O)C2(F)CC2)C(C)(C)C)c(OCCOc2cnc(N3CCC(CCCC(=O)Nc4cccc(Sc5cnc(N6CCC(C)(CN)CC6)cn5)c4Cl)CC3)nc2)c1 [Example 90, (2S,4R)—N-(2-(2-((2-(4-(4-((3-((5-(4-(aminomethyl)-4-methylpiperidin-1-yl)pyrazin-2-yl)thio)-2-chlorophenyl)amino)-4-oxobutyl)piperidin-1-yl)pyrimidin-5-yl)oxy)ethoxy)-4-(4-methylthiazol-5-yl)benzyl)-1-((S)-2-(1-fluorocyclopropane-1-carboxamido)-3,3-dimethylbutanoyl)-4-hydroxypyrrolidine-2-carboxamide] | 6% | 97% | 98%
4 | Cc1ncsc1-c1ccc(CNC(=O)[C@@H]2C[C@@H](O)CN2C(=O)[C@@H](NC(=O)C2(F)CC2)C(C)(C)C)c(OCCN2CCN(C(=O)CC(=O)Nc3cccc(Sc4cnc(N5CCC(C)(N)CC5)cn4)c3Cl)CC2)c1 [Example 53, (2S,4R)—N-(2-(2-(4-(3-((3-((5-(4-amino-4-methylpiperidin-1-yl)pyrazin-2-yl)thio)-2-chlorophenyl)amino)-3-oxopropanoyl)piperazin-1-yl)ethoxy)-4-(4-methylthiazol-5-yl)benzyl)-1-((S)-2-(1-fluorocyclopropane-1-carboxamido)-3,3-dimethylbutanoyl)-4-hydroxypyrrolidine-2-carboxamide] | 83.9% | 97.8% | 
5 | Cc1ncsc1-c1ccc(CNC(=O)[C@@H]2C[C@@H](O)CN2C(=O)[C@@H](NC(=O)C2(F)CC2)C(C)(C)C)c(OCCN2CCN(C(=O)CC(=O)Nc3cccc(Sc4cnc(N5CCC(C)(CN)CC5)cn4)c3Cl)[C@H](C)C2)c1 [Example 62, (2S,4R)—N-(2-(2-((R)-4-(3-((3-((5-(4-(aminomethyl)-4-methylpiperidin-1-yl)pyrazin-2-yl)thio)-2-chlorophenyl)amino)-3-oxopropanoyl)-3-methylpiperazin-1-yl)ethoxy)-4-(4-methylthiazol-5-yl)benzyl)-1-((S)-2-(1-fluorocyclopropane-1-carboxamido)-3,3-dimethylbutanoyl)-4-hydroxypyrrolidine-2-carboxamide] | 82.5% | 96% | 
6 | Cc1ncsc1-c1ccc(CNC(=O)[C@@H]2C[C@@H](O)CN2C(=O)[C@@H](NC(=O)C2(F)CC2)C(C)(C)C)c(OCCCC2CCN(CC(=O)Nc3cccc(Sc4cnc(N5CCC(C)(CN)CC5)cn4)c3Cl)CC2)c1 [Example 71, (2S,4R)—N-(2-(3-(1-(2-((3-((5-(4-(aminomethyl)-4-methylpiperidin-1-yl)pyrazin-2-yl)thio)-2-chlorophenyl)amino)-2-oxoethyl)piperidin-4-yl)propoxy)-4-(4-methylthiazol-5-yl)benzyl)-1-((S)-2-(1-fluorocyclopropane-1-carboxamido)-3,3-dimethylbutanoyl)-4-hydroxypyrrolidine-2-carboxamide] | −1.0% | 29.0% | 87.5%
7 | Cc1ncsc1-c1ccc(CNC(=O)[C@@H]2C[C@@H](O)CN2C(=O)[C@@H](NC(=O)C2(F)CC2)C(C)(C)C)c(OC2CC3(CCN(c4ccc(C(=O)Nc5cccc(Sc6cnc(N7CCC(C)(CN)CC7)cn6)c5Cl)nn4)CC3)C2)c1 [Example 88, N-(3-((5-(4-(aminomethyl)-4-methylpiperidin-1-yl)pyrazin-2-yl)thio)-2-chlorophenyl)-6-(2-(2-(((2S,4R)-1-((S)-2-(1-fluorocyclopropane-1-carboxamido)-3,3-dimethylbutanoyl)-4-hydroxypyrrolidine-2-carboxamido)methyl)-5-(4-methylthiazol-5-yl)phenoxy)-7-azaspiro[3.5]nonan-7-yl)pyridazine-3-carboxamide] | 16.5% | 66.1% | 
8 | Cc1ncsc1-c1ccc(CNC(=O)[C@@H]2C[C@@H](O)CN2C(=O)[C@@H](NC(=O)C2(F)CC2)C(C)(C)C)c(OCCN2CCN(C(=O)CC(=O)Nc3cccc(Sc4cnc(N5CCC(C)(CN)CC5)cn4)c3Cl)CC2)c1 [Example 52, (2S,4R)—N-(2-(2-(4-(3-((3-((5-(4-(aminomethyl)-4-methylpiperidin-1-yl)pyrazin-2-yl)thio)-2-chlorophenyl)amino)-3-oxopropanoyl)piperazin-1-yl)ethoxy)-4-(4-methylthiazol-5-yl)benzyl)-1-((S)-2-(1-fluorocyclopropane-1-carboxamido)-3,3-dimethylbutanoyl)-4-hydroxypyrrolidine-2-carboxamide] | 72% | 96% | 94.5%
9 | Cc1ncsc1-c1ccc(CNC(=O)[C@@H]2C[C@@H](O)CN2C(=O)[C@@H](NC(=O)C2(F)CC2)C(C)(C)C)c(OC2CC3(CCN(C(=O)CC(=O)Nc4cccc(Sc5cnc(N6CCC(C)(CN)CC6)cn5)c4Cl)CC3)C2)c1 [Example 50, (2S,4R)—N-(2-((7-(3-((3-((5-(4-(aminomethyl)-4-methylpiperidin-1-yl)pyrazin-2-yl)thio)-2-chlorophenyl)amino)-3-oxopropanoyl)-7-azaspiro[3.5]nonan-2-yl)oxy)-4-(4-methylthiazol-5-yl)benzyl)-1-((S)-2-(1-fluorocyclopropane-1-carboxamido)-3,3-dimethylbutanoyl)-4-hydroxypyrrolidine-2-carboxamide] | 91.5% | 98.4% | 
10 | Cc1ncsc1-c1ccc(CNC(=O)[C@@H]2C[C@@H](O)CN2C(=O)[C@@H](NC(=O)C2(F)CC2)C(C)(C)C)c(OCCCN2CCN(CC(=O)Nc3cccc(Sc4cnc(N5CCC(C)(CN)CC5)cn4)c3Cl)C(=O)C2)c1 [Example 77, (2S,4R)—N-(2-(3-(4-(2-((3-((5-(4-(aminomethyl)-4-methylpiperidin-1-yl)pyrazin-2-yl)thio)-2-chlorophenyl)amino)-2-oxoethyl)-3-oxopiperazin-1-yl)propoxy)-4-(4-methylthiazol-5-yl)benzyl)-1-((S)-2-(1-fluorocyclopropane-1-carboxamido)-3,3-dimethylbutanoyl)-4-hydroxypyrrolidine-2-carboxamide] | 92.4% | 99.5% | 
11 | Cc1ncsc1-c1ccc(CNC(=O)[C@@H]2C[C@@H](O)CN2C(=O)[C@@H](NC(=O)C2(F)CC2)C(C)(C)C)c(OCCC2CCN(C(=O)CCC(=O)Nc3cccc(Sc4cnc(N5CCC(C)(CN)CC5)cn4)c3Cl)CC2)c1 [Example 45, (2S,4R)—N-(2-(2-(1-(4-((3-((5-(4-(aminomethyl)-4-methylpiperidin-1-yl)pyrazin-2-yl)thio)-2-chlorophenyl)amino)-4-oxobutanoyl)piperidin-4-yl)ethoxy)-4-(4-methylthiazol-5-yl)benzyl)-1-((S)-2-(1-fluorocyclopropane-1-carboxamido)-3,3-dimethylbutanoyl)-4-hydroxypyrrolidine-2-carboxamide] | 68.0% | 91.0% | 93.0%

Source: patent US20250230154A1, “COMPOUND HAVING SHP2 PROTEIN DEGRADING ACTIVITY, AND MEDICAL USES THEREOF” (UBIX THERAPEUTICS, INC., priority 2021, published 2025)
